Reference: patent US20090311237A1, “Combination therapy using a soluble hyaluronidase and a bisphosphonate” (priority 2008, published 2009)
“And” between values parts separate entries of the source, which are not always exact repeats. Identical values can stand only once.

Assay: Phase 1 Stage 1 clinical pharmacokinetics of SC ZA co-administered with rHuPH20
Assay type: in vivo, human
Settings: for MAT (mean absorption time = SC MRT − IV MRT) / MAT, Mean for the dose group / MAT, Median for the dose group: 100 mL, 24000 Units rHuPH20
Description: A pharmacokinetic study of zoledronic acid (ZA) co-administered with rHuPH20 in human subjects was conducted. The primary objective of the study was to determine the bioavailability of zoledronic acid dosed via subcutaneous (SC) co-administration with human recombinant hyaluronidase PH20 (rHuPH20). […] The patients were administered the prescribed dosage formulations as follows: Cohorts 1-5 were administered a single subcutaneous infusion in a dosage volume of 100 ml at a rate of 3 mL/min. […] The dosing solution is administered via needle or catheter into the SC space of the left anterior thigh (midway between the anterior iliac crest and the cephalad border of the patella). For cohorts 1-5, the dosing solutions were administered by a controlled rate infusion pump at approximately 3 mL/minute. […] The dosing solutions were administered by syringe push bolus injection. […] Serum concentration of ZA was determined using a qualified LC-MS-MS assay after derivatization with diazomethane (Zhu, L S et al. (2006) Rapid Commun. […] The assay range was from 2.0 to 400 ng/mL with a lower limit of quantitation (LLOQ) at 2.0 ng/mL. […] Non-compartmental analysis was used for derivation of primary and secondary pharmacokinetic (PK) parameters. […] Summary statistics (mean, standard deviation, and median) were calculated using JMP or Microsoft Excel.

[1] = Subj 51, ZA […] SC, inf 0.251 hr, PH20 6024 U
[2] = Subj 63, ZA 0.0820 mg/kg SC, inf […], PH20 6000 U
[3] = Subj 67, ZA 0.0717 mg/kg SC, inf […], PH20 2880 U
[4] = Subj 68, ZA 0.0608 mg/kg SC, inf […], PH20 2880 U
[5] = Subj 70, ZA 0.0776 mg/kg SC, inf […], PH20 2928 U
[6] = Subj 71, ZA 0.0781 mg/kg SC, inf […], PH20 6000 U
[7] = Subj 74, ZA 0.0794 mg/kg SC, inf […], PH20 6000 U
[8] = Subj 77, ZA […] SC, inf […], PH20 6000 U
[9] = ZA 0.25 mg SC + 24000 U rHuPH20, individual subjects
[10] = ZA 0.25 mg SC + 24000 U rHuPH20, mean, n=3
[11] = ZA 0.25 mg SC + 24000 U rHuPH20, median, n=3
[12] = ZA 0.5 mg SC + 24000 U rHuPH20, individual subjects
[13] = ZA 0.5 mg SC + 24000 U rHuPH20, mean, n=3
[14] = ZA 0.5 mg SC + 24000 U rHuPH20, median, n=3
[15] = ZA 1 mg SC + 24000 U rHuPH20, individual subjects
[16] = ZA 1 mg SC + 24000 U rHuPH20, mean, n=3
[17] = ZA 1 mg SC + 24000 U rHuPH20, median, n=3
[18] = ZA 2 mg SC + 24000 U rHuPH20, individual subjects

## O=P(O)(O)C(O)(Cn1ccnc1)P(=O)(O)O [ZA, 1-hydroxy-2-(1H-imidazol-1-yl)ethylidene-1,1-bisphosphonic acid]
[1]
  Vss: 1.27627 L/kg
  Vz: 3.04413 L/kg
[2]
  AUC (0-inf)/D: 0.008077 kg·h/mL
  CL: 2.0635 mL/min/kg
  Cmax/D: 0.002037 kg/mL
  Vss: 1.473 L/kg
  Vz: 3.66662 L/kg
[3]
  AUC (0-inf)/D: 0.01012 kg·h/mL
  CL: 1.648 mL/min/kg
  Cmax/D: 0.002176 kg/mL
  Vss: 1.03944 L/kg
  Vz: 2.6134 L/kg
[4]
  AUC (0-inf)/D: 0.01035 kg·h/mL
  CL: 1.61 mL/min/kg
  Cmax/D: 0.002368 kg/mL
  Vss: 1.59221 L/kg
  Vz: 3.88814 L/kg
[5]
  AUC (0-inf)/D: 0.008898 kg·h/mL
  CL: 1.873 mL/min/kg
  Cmax/D: 0.002771 kg/mL
  Vss: 0.98673 L/kg
  Vz: 3.15269 L/kg
[6]
  AUC (0-inf)/D: 0.008873 kg·h/mL
  CL: 1.8783 mL/min/kg
  Cmax/D: 0.002535 kg/mL
  Vss: 0.87424 L/kg
  Vz: 3.12259 L/kg
[7]
  AUC (0-inf)/D: 0.006994 kg·h/mL
  CL: 2.3828 mL/min/kg
  Cmax/D: 0.001511 kg/mL
  Vss: 1.84253 L/kg
  Vz: 4.88924 L/kg
[8]
  AUC (0-inf)/D: 0.008412 kg·h/mL
  CL: 1.9812 mL/min/kg
  Cmax/D: 0.001824 kg/mL
  Vss: 1.60873 L/kg
  Vz: 4.21769 L/kg
[9]
  AUC (0-12h): 29.30 ng·h/mL
  AUC (0-∞): 30.00 ng·h/mL and 31.77 ng·h/mL
  AUC (0-∞)/D: 0.00926 kg·h/mL and 0.00674 kg·h/mL and 0.00971 kg·h/mL
  Cmax/D: 0.00205 kg/mL and 0.00174 kg/mL and 0.00173 kg/mL
  MRT: 4.21 h
  T½elim: 1.88 h and 2.44 h and 2.10 h
[10]
  AUC (0-∞)/D: 0.00857 kg·h/mL
  Cmax/D: 0.00184 kg/mL
  T½elim: 2.14 h
[11]
  AUC (0-∞)/D: 0.00926 kg·h/mL
  Cmax/D: 0.00174 kg/mL
  T½elim: 2.10 h
ZA 0.25 mg SC, individual subjects
  MAT (mean absorption time = SC MRT − IV MRT): 1.47 h and 1.03 h and 2.31 h
ZA 0.25 mg SC, n=3
  MAT, Mean for the dose group: 1.60 h
  MAT, Median for the dose group: 1.47 h
[12]
  AUC (0-12h): 66.33 ng·h/mL
  AUC (0-∞): 68.26 ng·h/mL
  AUC (0-∞)/D: 0.00709 kg·h/mL and 0.00766 kg·h/mL and 0.00968 kg·h/mL
  Cmax/D: 0.00174 kg/mL and 0.00192 kg/mL and 0.00214 kg/mL
  MRT: 3.35 h
  T½elim: 2.24 h and 2.27 h (2×)
[13]
  AUC (0-∞)/D: 0.00814 kg·h/mL
  Cmax/D: 0.00193 kg/mL
  T½elim: 2.26 h
[14]
  AUC (0-∞)/D: 0.00766 kg·h/mL
  Cmax/D: 0.00192 kg/mL
  T½elim: 2.27 h
ZA 0.5 mg SC, individual subjects
  MAT (mean absorption time = SC MRT − IV MRT): 1.00 h and 1.11 h
ZA 0.5 mg SC, n=3
  MAT, Mean for the dose group: 1.03 h
  MAT, Median for the dose group: 1.00 h
[15]
  AUC (0-12h): 137.25 ng·h/mL
  AUC (0-∞): 158.68 ng·h/mL
  AUC (0-∞)/D: 0.00701 kg·h/mL and 0.01176 kg·h/mL and 0.00624 kg·h/mL
  Cmax/D: 0.00174 kg/mL and 0.00247 kg/mL and 0.00128 kg/mL
  MRT: 6.25 h
  Tmax: 0.73 h
  T½elim: 12.87 h and 13.95 h and 8.85 h
[16]
  AUC (0-∞)/D: 0.00834 kg·h/mL
  Cmax/D: 0.00183 kg/mL
  T½elim: 11.89 h
[17]
  AUC (0-∞)/D: 0.00701 kg·h/mL
  Cmax/D: 0.00174 kg/mL
  T½elim: 12.87 h
ZA 1 mg SC, individual subjects
  MAT (mean absorption time = SC MRT − IV MRT): 1.41 h and 1.00 h
ZA 1 mg SC, n=3
  MAT, Mean for the dose group: 1.36 h
  MAT, Median for the dose group: 1.41 h
[18]
  AUC (0-12h): 213.87 ng·h/mL and 236.51 ng·h/mL
  AUC (0-∞): 245.47 ng·h/mL and 293.51 ng·h/mL
  AUC (0-∞)/D: 0.00739 kg·h/mL and 0.00809 kg·h/mL and 0.00825 kg·h/mL
  Cmax/D: 0.00188 kg/mL and 0.00175 kg/mL and 0.00165 kg/mL
  MRT: 10.59 h
